Reference: ChEMBL document CHEMBL3621090, “Discovery of a novel Kv7 channel opener as a treatment for epilepsy” (Bioorg Med Chem Lett, 2015)
pEC50, pIC50: −log10 of the molar value.

Assays:
[1] = Ratio of free drug level in plasma to brain in Sprague-Dawley rat at 1 mg/kg, sc administration at 30 mins; type: ADME, organism-based; conditions: in vivo, 0.5 h
Rattus norvegicus [2] = test: Anticonvulsant activity in Sprague-Dawley rat assessed as protection against maximal electroshock-induced convulsion at 30 mg/kg, sc administered 30 mins prior to application of shock via corneal electrodes relative to control; type: functional
[3] = Ratio of free drug level in plasma to brain in Sprague-Dawley rat at 10 mg/kg, sc administration at 30 mins; type: ADME, organism-based; conditions: in vivo, 0.5 h
[4] = Ratio of free drug level in plasma to brain in Sprague-Dawley rat at 10 mg/kg, po administration at 60 mins; type: ADME, organism-based; conditions: in vivo, 1 h
[5] = molecular target: Voltage-gated potassium channel, KQT; KCNQ2(Kv7.2)/KCNQ3(Kv7.3) (Homo sapiens) (UniProt O43526+O43525); test: Activation of human Kv7.2/7.3 expressed in CHOK1 cells assessed as increase in current amplitude relative to control; type: cell-based; conditions: CHO-K1
[6] = Ratio of free drug level in plasma to brain in Sprague-Dawley rat at 3 mg/kg, sc administration at 30 mins; type: ADME, organism-based; conditions: in vivo, 0.5 h
Rattus norvegicus [7] = test: Anticonvulsant activity in Sprague-Dawley rat assessed as protection against maximal electroshock-induced convulsion at 10 mg/kg, sc administered 30 mins prior to application of shock via corneal electrodes relative to control; type: functional
[8] = Ratio of free drug level in plasma to brain in Sprague-Dawley rat at 30 mg/kg, sc administration at 30 mins; type: ADME, organism-based; conditions: in vivo, 0.5 h
Brain [9] = test: Fraction unbound in Sprague-Dawley rat brain at 1 mg/kg, po administered at 60 mins by LC-MS/MS analysis; type: ADME, organism-based; conditions: in vivo, 1 h
[10] = Toxicity in human THLE cells assessed as ATP depletion; type: cell-based
[11] = molecular target: Voltage-gated potassium channel KCNQ3/KCNQ5 (Homo sapiens, UniProt O43525+Q9NR82); test: Activation of human Kv7.3/7.5 expressed in CHOK1 cells; type: cell-based, CHO-K1
Voltage-gated potassium channel KCNQ3/KCNQ5, sequence (O43525 whole entry): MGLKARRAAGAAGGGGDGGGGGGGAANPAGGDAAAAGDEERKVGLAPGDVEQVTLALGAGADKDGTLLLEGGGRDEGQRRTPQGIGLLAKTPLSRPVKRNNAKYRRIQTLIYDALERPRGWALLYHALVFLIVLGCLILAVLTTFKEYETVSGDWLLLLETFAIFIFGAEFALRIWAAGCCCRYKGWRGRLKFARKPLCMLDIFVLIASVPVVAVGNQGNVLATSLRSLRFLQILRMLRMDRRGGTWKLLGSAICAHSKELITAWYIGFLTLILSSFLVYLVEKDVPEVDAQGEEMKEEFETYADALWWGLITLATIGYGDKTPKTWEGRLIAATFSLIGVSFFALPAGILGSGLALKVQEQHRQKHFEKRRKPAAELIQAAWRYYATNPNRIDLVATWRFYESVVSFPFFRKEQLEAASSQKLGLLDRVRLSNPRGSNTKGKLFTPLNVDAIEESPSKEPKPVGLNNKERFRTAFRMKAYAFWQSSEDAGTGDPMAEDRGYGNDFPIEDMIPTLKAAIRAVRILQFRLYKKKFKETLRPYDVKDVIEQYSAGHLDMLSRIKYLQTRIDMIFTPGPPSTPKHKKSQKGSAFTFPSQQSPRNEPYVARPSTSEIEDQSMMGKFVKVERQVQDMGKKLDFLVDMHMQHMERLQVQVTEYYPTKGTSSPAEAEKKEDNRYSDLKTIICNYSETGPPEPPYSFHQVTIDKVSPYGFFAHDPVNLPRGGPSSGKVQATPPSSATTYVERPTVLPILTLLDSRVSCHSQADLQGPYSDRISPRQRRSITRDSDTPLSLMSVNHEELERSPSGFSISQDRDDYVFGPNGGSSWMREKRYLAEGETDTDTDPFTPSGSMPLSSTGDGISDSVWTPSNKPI
Voltage-gated potassium channel KCNQ3/KCNQ5, sequence (Q9NR82 whole entry): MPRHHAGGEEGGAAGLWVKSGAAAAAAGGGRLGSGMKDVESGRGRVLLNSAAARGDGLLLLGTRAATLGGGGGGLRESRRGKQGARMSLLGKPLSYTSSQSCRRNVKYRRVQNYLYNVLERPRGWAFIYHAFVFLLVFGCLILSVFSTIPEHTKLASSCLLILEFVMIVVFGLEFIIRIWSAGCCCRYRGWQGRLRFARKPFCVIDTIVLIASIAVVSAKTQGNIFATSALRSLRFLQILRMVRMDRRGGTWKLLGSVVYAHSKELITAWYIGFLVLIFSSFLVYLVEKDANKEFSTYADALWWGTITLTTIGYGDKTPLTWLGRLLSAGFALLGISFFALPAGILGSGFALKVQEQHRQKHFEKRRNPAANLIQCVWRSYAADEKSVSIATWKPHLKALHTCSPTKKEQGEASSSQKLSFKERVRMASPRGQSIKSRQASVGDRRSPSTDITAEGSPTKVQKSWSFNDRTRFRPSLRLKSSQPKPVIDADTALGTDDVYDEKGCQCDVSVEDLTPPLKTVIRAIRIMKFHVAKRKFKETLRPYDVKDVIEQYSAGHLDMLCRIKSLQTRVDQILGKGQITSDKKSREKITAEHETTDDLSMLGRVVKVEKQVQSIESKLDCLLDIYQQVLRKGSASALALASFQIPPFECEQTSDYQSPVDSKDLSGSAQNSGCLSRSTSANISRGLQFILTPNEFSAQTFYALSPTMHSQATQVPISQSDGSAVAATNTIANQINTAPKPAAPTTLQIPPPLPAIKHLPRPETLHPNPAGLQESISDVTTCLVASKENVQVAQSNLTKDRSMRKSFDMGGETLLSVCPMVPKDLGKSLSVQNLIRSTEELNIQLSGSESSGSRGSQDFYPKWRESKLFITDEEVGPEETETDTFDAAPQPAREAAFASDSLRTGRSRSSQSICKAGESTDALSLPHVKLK

Plasma [12] = test: Unbound plasma concentration in Sprague-Dawley rat at 1 mg/kg, sc administered at 30 mins by LC-MS/MS analysis; type: ADME, organism-based; conditions: in vivo, 0.5 h
Brain [13] = test: Fraction unbound in Sprague-Dawley rat brain at 1 mg/kg, sc administered at 30 mins by LC-MS/MS analysis; type: ADME, organism-based; conditions: in vivo, 0.5 h
Rattus norvegicus [14] = test: Anticonvulsant activity in Sprague-Dawley rat assessed as protection against maximal electroshock-induced convulsion at 30 mg/kg, po administered 60 mins prior to application of shock via corneal electrodes relative to control; type: functional
Plasma [15] = test: Unbound plasma concentration in Sprague-Dawley rat at 30 mg/kg, po administered at 60 mins by LC-MS/MS analysis; type: ADME, organism-based; conditions: in vivo, 1 h
[16] = molecular target: Voltage-gated potassium channel, IKs; KCNQ1(Kv7.1)/KCNE1(MinK) (Homo sapiens, UniProt P51787+P15382); test: Activation of human Kv7.1/KCNE1 expressed in CHOK1 cells assessed as increase in current amplitude relative to control; type: cell-based; conditions: cho-k1
Voltage-gated potassium channel, IKs; KCNQ1(Kv7.1)/KCNE1(MinK), sequence (P51787 whole entry): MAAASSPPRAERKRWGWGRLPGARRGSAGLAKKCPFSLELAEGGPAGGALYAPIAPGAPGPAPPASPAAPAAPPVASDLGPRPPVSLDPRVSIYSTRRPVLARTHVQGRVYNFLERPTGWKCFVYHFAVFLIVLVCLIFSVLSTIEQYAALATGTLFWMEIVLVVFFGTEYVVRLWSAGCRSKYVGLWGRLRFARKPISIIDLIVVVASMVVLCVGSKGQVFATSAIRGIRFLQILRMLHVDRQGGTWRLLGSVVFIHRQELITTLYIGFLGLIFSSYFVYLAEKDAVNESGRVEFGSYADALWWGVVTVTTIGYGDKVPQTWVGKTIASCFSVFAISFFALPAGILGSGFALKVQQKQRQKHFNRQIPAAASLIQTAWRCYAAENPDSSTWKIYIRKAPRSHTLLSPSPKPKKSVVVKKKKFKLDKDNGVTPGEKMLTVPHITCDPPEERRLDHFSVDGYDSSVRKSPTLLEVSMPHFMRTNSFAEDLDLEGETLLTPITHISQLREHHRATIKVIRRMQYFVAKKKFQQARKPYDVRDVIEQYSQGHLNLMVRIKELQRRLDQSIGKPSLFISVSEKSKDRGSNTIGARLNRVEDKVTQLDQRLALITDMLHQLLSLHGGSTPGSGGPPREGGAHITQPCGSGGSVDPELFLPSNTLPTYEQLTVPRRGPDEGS

[17] = Ratio of free drug level in plasma to brain in Sprague-Dawley rat at 1 mg/kg, po administration at 60 mins; type: ADME, organism-based; conditions: in vivo, 1 h
Rattus norvegicus [18] = test: Anticonvulsant activity in Sprague-Dawley rat assessed as protection against maximal electroshock-induced convulsion at 10 mg/kg, po administered 60 mins prior to application of shock via corneal electrodes relative to control; type: functional
Brain [19] = test: Fraction unbound in Sprague-Dawley rat brain at 30 mg/kg, po administered at 60 mins by LC-MS/MS analysis; type: ADME, organism-based; conditions: in vivo, 1 h
Plasma [20] = test: Unbound plasma concentration in Sprague-Dawley rat at 10 mg/kg, po administered at 60 mins by LC-MS/MS analysis; type: ADME, organism-based; conditions: in vivo, 1 h
Rattus norvegicus [21] = test: Anticonvulsant activity in sc dosed Sprague-Dawley rat assessed as protection against maximal electroshock-induced convulsion administered 30 mins prior to application of shock via corneal electrodes; type: functional, organism-based
Rattus norvegicus [22] = test: Anticonvulsant activity in Sprague-Dawley rat assessed as protection against maximal electroshock-induced convulsion at 1 mg/kg, sc administered 30 mins prior to application of shock via corneal electrodes relative to control; type: functional
Brain [23] = test: Fraction unbound in Sprague-Dawley rat brain at 30 mg/kg, sc administered at 30 mins by LC-MS/MS analysis; type: ADME, organism-based; conditions: in vivo, 0.5 h
Plasma [24] = test: Unbound plasma concentration in Sprague-Dawley rat at 10 mg/kg, sc administered at 30 mins by LC-MS/MS analysis; type: ADME, organism-based; conditions: in vivo, 0.5 h
Rattus norvegicus [25] = test: Anticonvulsant activity in Sprague-Dawley rat assessed as protection against maximal electroshock-induced convulsion at 3 mg/kg, po administered 60 mins prior to application of shock via corneal electrodes relative to control; type: functional
[26] = Fraction unbound in rat plasma by equilibrium dialysis method; type: ADME, cell-free
[27] = Permeability in dog RRCK cells after 2 hrs by transwell assay; type: ADME, cell-based, Canis lupus familiaris, MDCKII-LE; conditions: mdck, read-out: permeability
[28] = Ratio of free drug level in plasma to brain in Sprague-Dawley rat at 3 mg/kg, po administration at 60 mins; type: ADME, organism-based; conditions: in vivo, 1 h
[29] = molecular target: T1, Potassium voltage-gated channel subfamily KQT member 4 (Rattus norvegicus, UniProt Q9JK96); test: Activation of rat Kv7.4 expressed in CHOK1 cells; type: cell-based, CHO-K1
T1 sequence (Q9JK96 whole entry): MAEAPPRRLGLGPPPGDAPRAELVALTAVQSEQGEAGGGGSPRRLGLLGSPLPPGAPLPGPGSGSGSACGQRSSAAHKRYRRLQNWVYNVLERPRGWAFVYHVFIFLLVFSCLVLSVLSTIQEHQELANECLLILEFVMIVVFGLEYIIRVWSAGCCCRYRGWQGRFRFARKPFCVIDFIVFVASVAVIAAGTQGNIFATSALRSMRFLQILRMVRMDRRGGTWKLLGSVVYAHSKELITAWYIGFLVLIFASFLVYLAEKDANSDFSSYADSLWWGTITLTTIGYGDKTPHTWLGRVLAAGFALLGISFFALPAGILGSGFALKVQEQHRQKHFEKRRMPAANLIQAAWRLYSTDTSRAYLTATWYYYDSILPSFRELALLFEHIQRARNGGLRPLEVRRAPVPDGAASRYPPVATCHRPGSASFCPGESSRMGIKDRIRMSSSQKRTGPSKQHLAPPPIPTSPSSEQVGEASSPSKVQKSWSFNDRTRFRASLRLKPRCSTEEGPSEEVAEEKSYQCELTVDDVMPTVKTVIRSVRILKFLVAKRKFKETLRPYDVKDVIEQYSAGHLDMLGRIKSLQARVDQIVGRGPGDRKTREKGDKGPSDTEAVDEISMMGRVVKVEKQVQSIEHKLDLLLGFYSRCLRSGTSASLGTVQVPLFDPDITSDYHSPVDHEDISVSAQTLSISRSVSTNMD

Rattus norvegicus [30] = test: Anticonvulsant activity in po dosed Sprague-Dawley rat assessed as protection against maximal electroshock-induced convulsion administered 60 mins prior to application of shock via corneal electrodes; type: functional, organism-based
Brain [31] = test: Fraction unbound in Sprague-Dawley rat brain at 3 mg/kg, po administered at 60 mins by LC-MS/MS analysis; type: ADME, organism-based; conditions: in vivo, 1 h
[32] = molecular target: Potassium voltage-gated channel subfamily KQT member 2/member 3 (Rattus norvegicus) (UniProt O88943+O88944); test: Activation of rat Kv7.2/7.3 expressed in CHOK1 cells assessed as increase in current amplitude relative to control; type: cell-based; conditions: CHO-K1

In the case of `COc1nc(N2CCC(OC)CC2)nc(OC)c1NC(=O)CC(C)(C)C`, the Ratio [1] was 0.57, the Activity (Rattus norvegicus [2]) was 100% and the Ratio [3] was 0.59. For the same molecule, the Ratio [4] was 0.37, the Activity [5] was 265% and the Ratio [6] was 0.59. The Activity (Rattus norvegicus [7]) was 100%, the Ratio [8] was 0.55 and the “Drug uptake(free)” value (Brain [9]) was 6 nM. For the same molecule, the pIC50 [10] was less than 3.52, the pEC50 [11] was 6.23 and the “Cp(f)” value (Plasma [12]) was 58 nM. The “Drug uptake(free)” value (Brain [13]) was 33 nM, the Activity (Rattus norvegicus [14]) was 100% and the “Cp(f)” value (Plasma [15]) was 572 nM. It also gave an Activity [16] of 84%, a Ratio [17] of 0.42 and an Activity (Rattus norvegicus [18]) of 100%. The “Drug uptake(free)” value (Brain [19]) was 274 nM, the “Cp(f)” value (Plasma [20]) was 225 nM and the Activity (Rattus norvegicus [21]) was “Dose-dependent effect”. The Activity (Rattus norvegicus [22]) was 43%, the “Drug uptake(free)” value (Brain [23]) was 167 nM and the “Cp(f)” value (Plasma [24]) was 211 nM. It also gave an Activity (Rattus norvegicus [25]) of 88%, a fraction unbound [26] of 0.184 and a Papp at 2 h [27] of 24.9 ×10⁻⁶ cm/s. For the same molecule, the Ratio [28] was 0.39, the pEC50 [29] was 6.42 and the Activity (Rattus norvegicus [30]) was “Dose-dependent effect”. For the same molecule, the “Drug uptake(free)” value (Brain [31]) was 43 nM and the Activity [32] was 237%.
